{"source": "patent US12644142B2", "about": "“Sugar composition containing cyclic tetrasaccharide, use thereof, and production method therefor” (NAGASE VIITA CO., LTD., priority 2019, dated 2026)", "key": {"[1]": {"conditions": "purity of 98% by mass, aqueous solution with a solid concentration of 50% by mass; cited from earlier work"}, "[2]": {"experiment": "Preliminary evaluation of digestion and absorption after oral ingestion", "type": "in vivo", "conditions": "orally ingested into a human body"}}}
{"smiles": "OC[C@H]1O[C@@H]2OC[C@H]3O[C@H](O[C@@H]4[C@@H](O)[C@@H](OC[C@H]5O[C@H](O[C@H]([C@H]2O)[C@@H]1O)[C@H](O)[C@@H](O)[C@@H]5O)O[C@H](CO)[C@H]4O)[C@H](O)[C@@H](O)[C@@H]3O", "note": "[cyclic tetrasaccharide, cyclo{→6)-α-D-glucopyranosyl-(1→3)-α-D-glucopyranosyl-(1→6)-α-D-glucopyranosyl-(1→3)-α-D-glucopyranosyl-(1→}]", "values": [{"measurement": "precipitation of crystals", "setting": "[1]", "value": "easily causes precipitation of crystals"}, {"measurement": "digestion and absorption after oral ingestion", "setting": "[2]", "value": "reaches the large intestine without being digested or absorbed"}]}
